The nature of data set [1]: Density and viscosity in dependence of the solvent used as 2nd phase. Type of data set: physicochemical. Here is the method:
The performance of said 2nd phases were tested with regards to growth, loss (consumption, evaporation or other ways of disappearance) of the solvents during the fermentation and the density and viscosity of the cultivation medium, wherein the test was carried out after 4 days of growth period.

The nature of data set [2]: Loss (consumption, evaporation or other disappearance) of the 2nd phase solvent during the fermentation. The following applies: loss of initial solvent volume, shake plate assay, after 4 days of growth period. Details: species or system Yarrowia lipolytica. From the text: As used herein, the term “not disappearing” in connection with the second phase solvents as defined herein means that the same amount of solvent present at the start of the fermentation is still detectable at the end of the fermentation process. A loss or disappearance of solvent might be due to e.g. consumption by the host cell and/or evaporation during the fermentation. The terms “loss” or “disappearance” are used interchangeably herein. Such solvent as used for the process of the present invention is also called a “stable” solvent. Thus, a stable solvent according to the present invention means a loss or disappearance of the solvent during the fermentation in the range of about 20% or less, e.g. in the range of about 20, 15, 10, 8, 5, 3, 2, 1% or even no loss or disappearance of the solvent during the fermentation.
Shake plate assay. Typically, 200 μl of 0.25% yeast extract, 0.5% peptone (0.25X YP) is inoculated with 10 μl of freshly grown Yarrowia and overlaid with 200 μl of solvent. Candida rugosa Lipase (Creative enzymes) was resuspended in PBS and added to the growth media when the carbon source was 2% corn oil. […] The second phase (Drakeol 5, or others listed in table 6) fraction was removed from the shake plate wells and analyzed by UPLC on a normal phase column and/or C4 HPLC, with a photo-diode array detector (see details below). […]

For the compound `CCCCCCCCCCCC` [dode, n-dodecane], the “Density” value in data set [1] was 0.75 g/mL. Moreover, in data set [1] (measured at 20° C.), the Viscosity was 1.34. Besides, the results for the Loss in data set [2] and in data set [2] (listed as n-dodecane) were 100% and “completely disappeared”, respectively.

Source of the values: patent publication US12716077B2, “Fermentative production of isoprenoids” (DSM IP ASSETS B.V., priority 2020, dated 2026).
